HELM strings list units from the 5' end as sugar, base in round brackets, then linkage (d deoxyribose, r ribose, m 2'-O-methyl, p phosphodiester). Strings are as the collection lists them; they lack the last nucleoside at the 3' end of the tested compound. [moe] = 2'-O-(2-methoxyethyl) (MOE); [sp] = phosphorothioate linkage; [m5C] = 5-methylcytosine

In the data set the target is UBE3A-ATS. Kind of data set: mouse, dose not given. Particulars: ASO.
“RNA1{[moe](G)[sp].[moe](G)p.[moe](G)p.[moe]([m5C])p.[moe](A)p.d(A)[sp].d(A)[sp].d(A)[sp].d(A)[sp].d(T)[sp].d(A)[sp].d(G)[sp].d([m5C])[sp].d(A)[sp].d(A)[sp].[moe]([m5C])p.[moe](A)p.[moe](T)[sp].[moe](A)}$$$$ (last 3' nucleoside missing)” gave a 3 h FOB score of 5.8 score 0-7.

For “RNA1{[moe](A)[sp].[moe]([m5C])p.[moe](G)p.[moe]([m5C])p.[moe](A)p.[moe](A)[sp].d(T)[sp].d(G)[sp].d(T)[sp].d(A)[sp].d(T)[sp].d([m5C])[sp].d(A)[sp].d(G)[sp].[moe](G)p.[moe]([m5C])[sp].[moe](A)}$$$$ (last 3' nucleoside missing)”, the 3 h FOB score amounted to 0 score 0-7.

As to “RNA1{[moe](T)[sp].[moe](G)p.[moe](T)p.[moe](G)p.[moe]([m5C])[sp].d(A)[sp].d(T)[sp].d(A)[sp].d([m5C])[sp].d([m5C])[sp].d([m5C])[sp].d(A)[sp].d(G)[sp].[moe](G)p.[moe](G)p.[moe](T)[sp].[moe](A)}$$$$ (last 3' nucleoside missing)”, the 3 h FOB score came to 1 score 0-7.

For “RNA1{[moe](T)[sp].[moe](G)p.[moe](T)p.[moe](G)p.[moe]([m5C])p.d(A)[sp].d(T)[sp].d(A)[sp].d([m5C])[sp].d([m5C])[sp].d([m5C])[sp].d(A)[sp].d(G)[sp].d(G)[sp].d(G)[sp].[moe](T)p.[moe](A)p.[moe](G)[sp].[moe](G)}$$$$ (last 3' nucleoside missing)”, the 3 h FOB score came to 3 score 0-7.

Turning to “RNA1{[moe](T)[sp].[moe](A)p.[moe](G)p.[moe](T)p.[moe](T)p.d(T)[sp].d([m5C])[sp].d(A)[sp].d([m5C])[sp].d([m5C])[sp].d(G)[sp].d(A)[sp].d(A)[sp].d(A)[sp].d(G)[sp].[moe](T)p.[moe](A)p.[moe]([m5C])[sp].[moe](A)}$$$$ (last 3' nucleoside missing)”, the 3 h FOB score was found to be 2.5 score 0-7.

On to “RNA1{[moe](T)[sp].[moe](G)p.[moe](T)p.[moe](G)[sp].d([m5C])[sp].d(A)[sp].d(T)[sp].d(A)[sp].d([m5C])[sp].d([m5C])[sp].d([m5C])[sp].d(A)[sp].[moe](G)p.[moe](G)p.[moe](G)p.[moe](T)[sp].[moe](A)}$$$$ (last 3' nucleoside missing)”, for which the 3 h FOB score was 1 score 0-7.

As for “RNA1{[moe](T)[sp].[moe](G)p.[moe](G)p.[moe](T)p.[moe]([m5C])[sp].d(A)[sp].d(T)[sp].d([m5C])[sp].d(T)[sp].d([m5C])[sp].d(G)[sp].d(G)[sp].d(G)[sp].[moe](T)p.[moe](A)p.[moe](T)[sp].[moe](A)}$$$$ (last 3' nucleoside missing)”, the 3 h FOB score came to 6.3 score 0-7.

For the substance “RNA1{[moe]([m5C])[sp].[moe](A)p.[moe](T)p.[moe]([m5C])p.[moe](A)p.d(T)[sp].d(G)[sp].d(A)[sp].d(T)[sp].d([m5C])[sp].d(T)[sp].d(T)[sp].d(G)[sp].d(G)[sp].d(T)[sp].[moe](A)p.[moe](A)p.[moe](G)[sp].[moe](G)}$$$$ (last 3' nucleoside missing)”, the 3 h FOB score came to 3 score 0-7.

On to “RNA1{[moe](A)[sp].[moe](T)p.[moe](T)p.[moe](G)p.[moe](A)p.d([m5C])[sp].d(A)[sp].d([m5C])[sp].d([m5C])[sp].d(T)[sp].d([m5C])[sp].d([m5C])[sp].d(A)[sp].d(A)[sp].d([m5C])[sp].[moe](T)p.[moe](G)p.[moe](T)[sp].[moe](A)}$$$$ (last 3' nucleoside missing)”, for which the 3 h FOB score was found to be 0.7 score 0-7.

In turn, “RNA1{[moe]([m5C])[sp].[moe](A)p.[moe](T)p.[moe](T)p.[moe](A)p.d(T)[sp].d(T)[sp].d([m5C])[sp].d(T)[sp].d([m5C])[sp].d(T)[sp].d(A)[sp].d(G)[sp].d(T)[sp].d(G)[sp].[moe]([m5C])p.[moe]([m5C])p.[moe](T)[sp].[moe](A)}$$$$ (last 3' nucleoside missing)” came in with a 3 h FOB score of 4 score 0-7.

In turn, “RNA1{[moe](T)[sp].[moe](G)p.[moe](A)p.[moe](G)p.d([m5C])[sp].d(T)[sp].d(A)[sp].d(T)[sp].d([m5C])[sp].d(T)[sp].d(G)[sp].d(T)[sp].d(A)[sp].d([m5C])[sp].[moe](A)p.[moe](A)p.[moe](A)p.[moe](A)[sp].[moe](T)}$$$$ (last 3' nucleoside missing)” had a 3 h FOB score of 5.5 score 0-7.

“RNA1{[moe]([m5C])[sp].[moe](A)p.[moe](G)p.[moe](A)p.[moe](G)p.d(T)[sp].d(G)[sp].d(T)[sp].d([m5C])[sp].d(T)[sp].d(T)[sp].d(A)[sp].d(G)[sp].d(G)[sp].d(G)[sp].[moe](T)p.[moe]([m5C])p.[moe](T)[sp].[moe]([m5C])}$$$$ (last 3' nucleoside missing)” returned a 3 h FOB score of 5.5 score 0-7.

With “RNA1{[moe](G)[sp].[moe](A)p.[moe](G)p.[moe]([m5C])p.[moe](T)p.[moe](A)p.d(T)[sp].d([m5C])[sp].d(T)[sp].d(G)[sp].d(T)[sp].d(A)[sp].d([m5C])[sp].d(A)[sp].d(A)[sp].d(A)[sp].[moe](A)p.[moe](T)[sp].[moe](G)}$$$$ (last 3' nucleoside missing)”, the 3 h FOB score is 5.2 score 0-7.

In the case of “RNA1{[moe](G)[sp].[moe](T)p.[moe](A)p.[moe](G)p.[moe](A)p.d(T)[sp].d(A)[sp].d(A)[sp].d([m5C])[sp].d(T)[sp].d(T)[sp].d(T)[sp].d(A)[sp].d([m5C])[sp].d([m5C])[sp].[moe](T)p.[moe](T)p.[moe](G)[sp].[moe](A)}$$$$ (last 3' nucleoside missing)”, the 3 h FOB score came out at 0 score 0-7.

As for “RNA1{[moe]([m5C])[sp].[moe](G)p.[moe]([m5C])p.[moe](A)[sp].d(A)[sp].d(T)[sp].d(G)[sp].d(T)[sp].d(A)[sp].d(T)[sp].d([m5C])[sp].d(A)[sp].[moe](G)p.[moe](G)p.[moe]([m5C])p.[moe](A)[sp].[moe](A)}$$$$ (last 3' nucleoside missing)”, the 3 h FOB score came to 1 score 0-7.

Substance “RNA1{[moe](T)[sp].[moe](T)p.[moe](G)p.[moe](G)p.[moe]([m5C])p.d(A)[sp].d([m5C])[sp].d(A)[sp].d([m5C])[sp].d([m5C])[sp].d(T)[sp].d(G)[sp].d(G)[sp].d(A)[sp].d(T)[sp].[moe](T)p.[moe](T)p.[moe]([m5C])[sp].[moe](A)}$$$$ (last 3' nucleoside missing)” yielded a 3 h FOB score of 2 score 0-7.

In the case of “RNA1{[moe](T)[sp].[moe](G)p.[moe](T)p.[moe](G)p.d(T)[sp].d(G)[sp].d(T)[sp].d(T)[sp].d(T)[sp].d(T)[sp].d(T)[sp].d([m5C])[sp].d([m5C])[sp].d(A)[sp].[moe](T)p.[moe](T)p.[moe](T)p.[moe](T)[sp].[moe](T)}$$$$ (last 3' nucleoside missing)”, the 3 h FOB score is 1 score 0-7.

Substance “RNA1{[moe]([m5C])[sp].[moe]([m5C])p.[moe](A)p.[moe](A)p.[moe](T)p.d(A)[sp].d(T)[sp].d(T)[sp].d(T)[sp].d(T)[sp].d(G)[sp].d(A)[sp].d([m5C])[sp].d(T)[sp].d(A)[sp].[moe](G)p.[moe](T)p.[moe](T)[sp].[moe]([m5C])}$$$$ (last 3' nucleoside missing)” returned a 3 h FOB score of 4.2 score 0-7.

“RNA1{[moe](A)[sp].[moe]([m5C])p.[moe](T)p.[moe](T)p.[moe]([m5C])p.d(T)[sp].d([m5C])[sp].d(A)[sp].d(T)[sp].d(T)[sp].d([m5C])[sp].d(T)[sp].d([m5C])[sp].d(T)[sp].d([m5C])[sp].[moe]([m5C])p.[moe](A)p.[moe]([m5C])[sp].[moe]([m5C])}$$$$ (last 3' nucleoside missing)” came in with a 3 h FOB score of 0 score 0-7.

Turning to “RNA1{[moe](T)[sp].[moe](A)p.[moe](A)p.[moe](A)p.[moe](A)p.d(T)[sp].d([m5C])[sp].d([m5C])[sp].d(A)[sp].d(T)[sp].d(T)[sp].d(T)[sp].d(G)[sp].d(T)[sp].d([m5C])[sp].[moe]([m5C])p.[moe](A)p.[moe](G)[sp].[moe](T)}$$$$ (last 3' nucleoside missing)”, the 3 h FOB score amounted to 3.3 score 0-7.

Substance “RNA1{[moe](T)[sp].[moe]([m5C])p.[moe](A)p.[moe](A)p.[moe]([m5C])p.[moe]([m5C])[sp].d(A)[sp].d(A)[sp].d(T)[sp].d(T)[sp].d(T)[sp].d(G)[sp].d([m5C])[sp].d(T)[sp].[moe](A)p.[moe](T)[sp].[moe](T)}$$$$ (last 3' nucleoside missing)” had a 3 h FOB score of 3 score 0-7.

“RNA1{[moe](T)[sp].[moe](G)p.[moe](G)p.[moe]([m5C])p.[moe](A)p.d(A)[sp].d(G)[sp].d(T)[sp].d(A)[sp].d(T)[sp].d(G)[sp].d([m5C])[sp].d(T)[sp].d(A)[sp].d(G)[sp].[moe](T)p.[moe]([m5C])p.[moe](A)[sp].[moe]([m5C])}$$$$ (last 3' nucleoside missing)” gave a 3 h FOB score of 2.3 score 0-7.

Turning to “RNA1{[moe](T)[sp].[moe]([m5C])p.[moe](T)p.[moe](G)p.[moe](G)p.d(A)[sp].d(A)[sp].d(T)[sp].d([m5C])[sp].d(T)[sp].d(T)[sp].d(G)[sp].d(T)[sp].d(A)[sp].d(G)[sp].[moe](A)p.[moe](G)p.[moe](G)[sp].[moe](A)}$$$$ (last 3' nucleoside missing)”, the 3 h FOB score amounted to 2.7 score 0-7.

“RNA1{[moe](T)[sp].[moe]([m5C])p.[moe](T)p.[moe]([m5C])p.[moe](A)p.d(T)[sp].d(G)[sp].d(T)[sp].d(G)[sp].d(T)[sp].d(T)[sp].d(T)[sp].d(T)[sp].d(T)[sp].d(G)[sp].[moe](T)p.[moe](T)p.[moe]([m5C])[sp].[moe]([m5C])}$$$$ (last 3' nucleoside missing)” showed a 3 h FOB score of 5 score 0-7.

Turning to “RNA1{[moe](G)[sp].[moe](T)p.[moe](A)p.[moe](T)p.[moe](A)p.d(T)[sp].d(A)[sp].d([m5C])[sp].d(T)[sp].d([m5C])[sp].d([m5C])[sp].d(A)[sp].d(G)[sp].d(G)[sp].d(T)[sp].[moe](T)p.[moe](G)p.[moe](T)[sp].[moe](G)}$$$$ (last 3' nucleoside missing)”, the 3 h FOB score turned out to be 5.2 score 0-7.

“RNA1{[moe]([m5C])[sp].[moe](T)p.[moe](G)p.[moe](A)p.[moe](T)p.d([m5C])[sp].d(A)[sp].d([m5C])[sp].d(A)[sp].d(T)[sp].d(T)[sp].d(A)[sp].d([m5C])[sp].d([m5C])[sp].d([m5C])[sp].[moe](A)p.[moe](T)p.[moe]([m5C])[sp].[moe]([m5C])}$$$$ (last 3' nucleoside missing)”: the 3 h FOB score was 1 score 0-7.

The values above are taken from the OligoGym collection.
